According to patent US20180194836A1, “PREVENTION OF METASTASIS AND RECURRENCE AFTER PRIMARY CANCER TREATMENT” (ENCYT TECHNOLOGIES, INC., priority 2014, published 2018):

Legend:
[1] = tested on: enriched circulating tumour cells (CTCs); assay: Cell proliferation / cancer stem cell markers in enriched CTCs from a patient with metastatic prostate cancer cultured with cytokine cocktails; format: cell-based, human; conditions: for EpCAM+CD133+ gated subpopulation / EpCAM+CD133− gated subpopulation / EpCAM−CD133+ gated subpopulation / EpCAM−CD133− gated subpopulation: enriched CTCs (metastatic prostate cancer patient) cultured with cytokine or cytokine cocktail, flow cytometry, antibody cocktail EpCAM A488, CD133 PE, CD45 PerCPCy5.5, percentages of gated subpopulations; for proliferation of EpCAM-CD44+ cell sub-population: no serum, no cytokines 2.2%; for Cell population EpCAM+CD44+ / Cell population EpCAM+CD44− / Cell population EpCAM−CD44+ / Cell population EpCAM−CD44−: metastatic prostate cancer patient, cell culture period 8 days
Description: (§1) Cells were fixed in 1% Paraformaldehyde for 15 minutes at room temperature and run on Flowsight using 2 lasers (488 nm at 60 mW and 405 nm at 30 mW). For cell lines, 100,000 events were collected whilst for enriched CTCs all events were collected until the sample finished.
(§2) Flow cytometry data was analysed using IDEAS software. Double events, out of focus events, CD45PerePCy5.5 positive cells (in case of enriched CTCs), dead cells and non-nucleated events were eliminated from the fluorescence analysis of the cell population. FIG. 2 depicts scatterplots of flow cytometry experiments showing the enriched CTCs stained with an antibody containing CD44 after treatment with various cytokines and cytokine cocktails.
In order to determine if selected cytokines influence cell proliferation of circulating tumour cells (CTCs), whole blood was collected from a patient with metastatic prostate cancer. Circulating tumour cells were enriched from whole blood using RosetteSep CTC Enrichment cocktail. Briefly, samples of whole blood were incubated with RosetteSep (anti CD 56 for 20 minutes at room temperature). Phosphate buffered saline containing 2% Fetal Bovine Serum was added to the samples and layered on a Ficoll Paque gradient. After centrifugation, the supernatant which contained CTCs was washed twice with PBS containing 2% FBS. Equal volumes of the cell suspension were seeded into a 24-well ultra-low attachment polystyrene plate. […] FIG. 3 depicts scatterplots of flow cytometry experiments enriched CTCs stained with an antibody containing CD133 after treatment with various cytokines and cytokine cocktails.
FIG. 6 depicts cell proliferation of subpopulations in cultured CTCs after exposure to various cytokines and cytokine cocktails. Cells were stained using an antibody containing CD44 PE.
Cells were stained using an antibody containing CD133 PE.

HCT-15 cells = assay: Cell proliferation / cell subpopulations in HCT-15 cell line after cytokines and cytokine cocktails (flow cytometry); format: cell-based; parameters: unit not given here; conditions: HCT-15 cells after exposure to cytokine combinations
Description: Cell proliferation of cancer and/or cancer stem cell populations with selected cytokine and cytokine cocktails on serum starved colorectal carcinoma cell lines. Prior to incubation cells were stained with a cell proliferation dye, which binds stoichiometrically to DNA. Intensity of the dye decreased upon cell division thereby signifying cell proliferation.
Two authenticated colorectal carcinoma cell lines, HCT-15 and SW-620, were used to test the effect of different cytokine and cytokine cocktails, including IL-6, HGF, PGE-2, TGF-beta and MMP-9 alone or in a cocktail, on cell proliferation, EMT and cancer stem cell populations.
In order to evaluate stem cell populations, cells were synchronized by serum starvation for 72 hours before seeding in 24-well ultra low attachment plates at a density of 200,000 cells/well. Cells were then detached using trypsin EDTA and washed twice with PBS (without Calcium or Magnesium). A cell proliferation dye, eFluor 450 was used to label cells. Cells were grown with DMEM with high glucose and 2 mM Gluatmine without FBS in the presence of selected cytokines and or cytokine cocktails over a period of 72 hrs.
Cells that were grown in 5% serum were stained with the following antibody cocktails: CD24FITC, CD44PE and CD24FITC, CD133PE. Cells were also stained with a fixable live/dead efluor dye 506 to exclude dead cells. In parallel, cells were grown in the presence of 5% serum to evaluate CSC markers.
as §1
as §2, with “cocktails. Hoescht 33258 dye was used to stain nuclei in the case of the HCT-15 cell line and enriched CTCs. All experiments were stained with a fixable live/dead dye eFluor 506 to exclude dead cells.” for “cocktails.”
To evaluate which cocktail combinations were most likely involved in cell proliferation of presumed quiescent stem cells or de-differentiated stein cell-like cells, four cytokines, IL-6, HGF, PGB-2 and TO were added singly or in pairs to HCT-15 cells. Results of combinations that influenced cell proliferation of HCT-15 cells in culture are presented. […] FIG. 4 depicts cell proliferation of subpopulations in the HCT-15 cell line after exposure to various cytokines and cytokine cocktails.

SW-620 cells = SW-620 cells treated with cytokines then Irinotecan; flow cytometry for stem cell markers and apoptosis; format: cell-based, human; conditions: SW-620, preliminary data
Description: SW-620 cells, a human colorectal adenocarcinoma cell line, were treated with cytokines alone or in combination including IL-6, TGF-beta, HGF, PGE-2, IL-6+PGE-2 and TGF-beta+HGF for 24 hours and compared to untreated SW-620 cells as control, Some treated and untreated SW-620 cells were then exposed to 2 μM Irinotecan for 36 hours at which point cells were harvested for flow cytometry to assess for stem cell markers and markers of apoptosis. The percentage of CD44+CD133− cells following treatment with various cytokine and cytokine cocktails is depicted in FIG. 10. Compared to non-cytokine treated cells, combinations with IL-6+PGE-2, and TGF-beta+HGF increased the number and percentage of cells that were CD44+CD133− as shown in FIG. 10 (stem cells). FIG. 11 depicts the percentage of CD44+CD133− cells following treatment with various cytokines and Irinotecan. Treatment with IL-6+Irinotecan and TGF+Irinotecan increased the percentage of CD44+CD133− stem cells to 2% (from zero in non-treated control cells) as shown in FIG. 11. FIG. 12 depicts the percentage of CD44+CD133− cells following treatment with various cytokine cocktails and Irinotecan. A combination of TGF+HGF+Irinotecan increased the percentage of CD44+CD133− stem cells to 2% (from zero in non-treated control cells) as shown in FIG. 12. […]

[2] = early use after coronary artery bypass surgery; cited from earlier work
breast cancer = conditions: perioperative, 9-18 month period of greatest risk, compared to other analgesics or NSAIDs post-operatively; cited from earlier work
[3] = tested on: B16 amelanotic melanoma model; conditions: cited from earlier work
[4] = tested on: enriched circulating tumour cells (CTCs); assay: Enriched CTCs from a patient with colorectal cancer cultured with IL-6, IL-8 or PDGFBB (EpCAM/CD133 flow cytometry); format: cell-based, human; conditions: for EpCAM+CD133+ gated subpopulation / EpCAM+CD133− gated subpopulation / EpCAM−CD133+ gated subpopulation / EpCAM−CD133− gated subpopulation: colorectal cancer patient
From the text: A blood sample was collected from a patient with colorectal cancer six days after surgery, Blood samples were enriched for CTCs using RosetteSep CD 56 kit according to standard protocol. Prior to cell culture, cells were stained with the following antibody cocktail: EpCAM A488, CD133PE, CD 45 PerCP Cy5.5, and Lgr5-PE-Vio770. Cells were either cultured in low attachment well plates without cytokines (control cells) or with three different cytokines (IL-6, IL-8 or PDGFBB).
Flow cytometry data was analysed using IDEAS software. Double events, out of focus events, CD45PercPCy5.5 positive cells, dead cells and non-nucleated events were eliminated from the fluorescence analysis of the cell population. Hoescht 33258 dye was used to stain nuclei of enriched CTCs. All experiments were stained with a fixable live/dead dye eFluor 506 to exclude dead cells.

colon cancer = conditions: cited from earlier work
[5] = tested on: premetastatic niche formation; conditions: disruption of niche formation; cited from earlier work

Molecule | EpCAM+CD133+ gated subpopulation [1] [%] | EpCAM+CD133− gated subpopulation [1] [%] | EpCAM−CD133+ gated subpopulation [1] [%] | EpCAM−CD133− gated subpopulation [1] [%] | Cell population EpCAM+CD44+ ([1]; enriched CTCs) | Cell population EpCAM+CD44− ([1]; enriched CTCs) | Cell population EpCAM−CD44+ ([1]; enriched CTCs) | Cell population EpCAM−CD44− ([1]; enriched CTCs) | CD24+CD44− cell subpopulation (HCT-15 cells) | CD44+CD24+ cell subpopulation (HCT-15 cells) | CD44+CD24− cell subpopulation (HCT-15 cells) | CD44−CD24− cell subpopulation (HCT-15 cells) | EpCAM+CD133+ gated subpopulation [4] | EpCAM+CD133− gated subpopulation [4] | EpCAM−CD133+ gated subpopulation [4] | EpCAM−CD133− gated subpopulation [4] | also measured
CCCCC[C@H](O)/C=C/[C@H]1[C@H](O)CC(=O)[C@@H]1C/C=C\CCCC(=O)O [PGE-2, prostaglandin E2, reference compound] | 10.4 | 0 | 86.7 | 2.61 | 27.2 percentage of gated cells | 1.75 percentage of gated cells | 4.23 percentage of gated cells | 65.5 percentage of gated cells | 58.7 | 7.3 | 0.61 | 32.4 |  |  |  |  | proliferation of EpCAM-CD44+ cell sub-population ([1]; enriched CTCs, 8 days culture): 4.23 % gated; enrichment of Irinotecan treated cells for cancer stem cells above non-cytokine treated controls (SW-620 cells): enriched
CC(=O)Oc1ccccc1C(=O)O [aspirin] |  |  |  |  |  |  |  |  |  |  |  |  |  |  |  |  | survival compared to no aspirin [2]: superior survival
O=C(c1ccccc1)c1ccc2n1CCC2C(=O)O (stereo not shown) [ketorolac] |  |  |  |  |  |  |  |  |  |  |  |  |  |  |  |  | reduction in relapses (breast cancer): 5 fold
CCCCC[C@H](O)/C=C/[C@@H]1[C@H]2C/C(=C/CCCC(=O)O)O[C@H]2C[C@H]1O [prostacyclin] |  |  |  |  |  |  |  |  |  |  |  |  |  |  |  |  | hepatic metastases [3]: complete elimination; pulmonary metastases [3]: reduction
HGF: Hepatocyte Growth Factor, cytokine added to cultured cancer cells | 17.2 | 0.2 | 80.8 | 1.58 | 16.8 percentage of gated cells | 4.89 percentage of gated cells | 2.12 percentage of gated cells | 74.9 percentage of gated cells | 58.6 | 3.29 | 0.31 | 35.9 |  |  |  |  | 
IL-6: cytokine Interleukin 6 added to cultured cancer cells | 23.5 | 0 | 74.7 | 1.46 | 35.6 percentage of gated cells | 2.66 percentage of gated cells | 6.14 percentage of gated cells | 55 percentage of gated cells | 49.1 | 5.63 | 1.35 | 43.2 | 0.1 percentages of gated subpopulations | 2.98 percentages of gated subpopulations | 0.12 percentages of gated subpopulations | 90.5 percentages of gated subpopulations | increase in the EpCAM+CD133− subpopulation (significance, p<0.05) ([4]; compared to control): statistically significant; percentage of cells positive for both EpCAM and CD44 ([1]; enriched CTCs, 8 days culture): highest; proliferation of EpCAM-CD44+ cell sub-population ([1]; enriched CTCs, 8 days culture): 6.14 % gated; enrichment of Irinotecan treated cells for cancer stem cells above non-cytokine treated controls (SW-620 cells): enriched
Il-8: cytokine IL-8 added to cultured CTCs |  |  |  |  |  |  |  |  |  |  |  |  | 0.13 percentages of gated subpopulations | 2.51 percentages of gated subpopulations | 0.09 percentages of gated subpopulations | 90.8 percentages of gated subpopulations | 
bevacizumab: antiangiogenic agent |  |  |  |  |  |  |  |  |  |  |  |  |  |  |  |  | relapse (colon cancer; during the year on treatment, started 29-50 days post-operatively, with adjuvant chemotherapy): delayed relapse; overall survival (colon cancer; versus chemotherapy-only group): no net benefit; metastatic colonization [5]: prevented metastatic colonization
PDGFBB: Platelet derived growth factor BB added to cultured CTCs (protein, UniProt P01127 82-190, looked up, BB homodimer, Platelet derived growth factor BB added to cultured CTCs) Platelet-derived growth …: SLGSLTIAEPAMIAECKTRTEVFEISRRLIDRTNANFLVWPPCVEVQRCSGCCNNRNVQCRPTQVQLRPVQVRKIEIVRKKPIFKKATVTLEDHLACKCETVAAARPVT |  |  |  |  |  |  |  |  |  |  |  |  | 0.18 percentages of gated subpopulations | 2.29 percentages of gated subpopulations | 0.1 percentages of gated subpopulations | 90.5 percentages of gated subpopulations | 
